Measured values as given in patent US7811797B2, “α-isomaltosylglucosaccharide-forming enzyme, process and uses of the same” (Kabushiki Kaisha Hayashibara Seibutsu Kagaku Kenkyujo, priority 2000, dated 2010).
Where two headings read alike, the source gives them in different places.

Legend:
[1] = tested on: α-isomaltosylglucosaccharide-forming enzyme; experiment: Influence of metal ions on the activity of α-isomaltosylglucosaccharide-forming enzyme (Strain C11); format: biochemical, Bacillus globisporus C11; details: for influence on the enzyme activity, in words: 1 mM; for Relative activity (%): 1 mM of each metal-ion
Protocol: (§1) One unit activity of the α-isomaltosylglucosaccharide-forming enzyme is defined as the enzyme amount that forms one micromole of maltose per minute under the above enzymatic reaction conditions. Throughout the specification, the enzymatic activity of the α-isomaltosylglucosaccharide-forming enzyme means the unit(s) assayed as above.
The influence of metal ions on the activity of α-isomaltosylglucosaccharide forming enzyme was examined in the presence of 1 mM of each metal-ion according to the assay for the enzyme activity.

[2] = tested on: α-isomaltosylglucosaccharide-forming enzyme; experiment: Influence of metal ions on the activity of α-isomaltosylglucosaccharide-forming enzyme (Strain N75); format: biochemical, Bacillus globisporus N75; details: for influence on the enzyme activity, in words: 1 mM; for Relative activity (%): 1 mM of each metal-ion
Protocol: as §1
(§2) The influence of metal ions on the activity of α-isomaltosylglucosaccharide-forming enzyme was examined in the presence of 1 mM of each metal-ion according to the assay for the enzyme activity.

[3] = tested on: α-isomaltosyl-transferring enzyme; experiment: Influence of metal ions on the activity of α-isomaltosyl-transferring enzyme (Strain C9); format: biochemical, Bacillus globisporus C9; details: for Relative activity (%): 1 mM of each metal-ion
Protocol: The α-isomaltosyl-transferring enzyme was assayed for enzymatic activity by dissolving panose in 100 mM acetate buffer (pH 6.0) to give a concentration of 2% (w/v) for a substrate solution, adding a 0.5 ml of an enzyme solution to 0.5 ml of the substrate solution, enzymatically reacting the mixture solution at 35° C. for 30 min, suspending the reaction mixture by boiling for 10 min, and quantifying glucose, among the cyclotetrasaccharide and glucose formed in the reaction mixture, by the glucose oxidase method. One unit activity of the α-isomaltosyl-transferring enzyme is defined as the enzyme amount that forms one micromole of glucose per minute under the above enzymatic reaction conditions. Throughout the specification, the enzymatic activity of the α-isomaltosyl-transferring enzyme means the unit(s) assayed as above. […]

[4] = tested on: α-isomaltosyl-transferring enzyme; experiment: Influence of metal ions on the activity of α-isomaltosyl-transferring enzyme (Strain S1); format: biochemical, Arthrobacter ramosus S1; details: for Relative activity (%): 1 mM of each metal-ion
Protocol: (§3) The α-isomaltosyl-transferring enzyme was assayed for enzymatic activity by dissolving panose in 100 mM acetate buffer (pH 6.0) to give a concentration of 2% (w/v) for a substrate solution, adding a 0.5 ml of an enzyme solution to 0.5 ml of the substrate solution, enzymatically reacting the mixture solution at 35° C. for 30 min, suspending the reaction mixture by boiling for 10 min, and quantifying glucose, among the cyclotetrasaccharide and glucose formed in the reaction mixture, by the glucose oxidase method. One unit activity of the α-isomaltosyl-transferring enzyme is defined as the enzyme amount that forms one micromole of glucose per minute under the above enzymatic reaction conditions. Throughout the specification, the enzymatic activity of the α-isomaltosyl-transferring enzyme means the unit(s) assayed as above.
(§4) The influence of metal ions on the activity of α-isomaltosyl-transferring enzyme was examined in the presence of 1 mM of each metal-ion according to the assay for the enzyme activity.

[5] = tested on: α-isomaltosylglucosaccharide-forming enzyme; experiment: Influence of metal ions on the activity of α-isomaltosylglucosaccharide-forming enzyme (Strain A19); format: biochemical, Arthrobacter globiformis A19; details: for Relative activity (%): 1 mM of each metal-ion
[6] = tested on: α-isomaltosylglucosaccharide-forming enzyme; experiment: Influence of metal ions on the activity of α-isomaltosylglucosaccharide-forming enzyme (Strain C9); format: biochemical, Bacillus globisporus C9; details: for Relative activity (%): 1 mM of each metal-ion
Protocol: as §1, §2

[7] = tested on: α-isomaltosyl-transferring enzyme; experiment: Influence of metal ions on the activity of α-isomaltosyl-transferring enzyme (Strain N75); format: biochemical, Bacillus globisporus N75; details: for Relative activity (%): 1 mM of each metal-ion
Protocol: as §3, §4

[8] = tested on: α-isomaltosyl-transferring enzyme; format: biochemical, Bacillus globisporus C11; details: for Relative activity (%): 1 mM of each metal-ion
Protocol: as §3, §4

[9] = tested on: α-isomaltosylglucosaccharide-forming enzyme; experiment: Action on saccharides (substrates), Enzyme of Strain C11; format: biochemical, Bacillus globisporus C11; parameters: key: −: it showed no change; +: it showed a slight reduction of the color spot of the substrate and the formation of other reaction product; ++: it showed a high reduction of the color spot of the substrate and the formation of other reaction product; +++: it showed a substantial disappearance of the substrate spot and the formation of other reaction product; details: two units/g substrate, substrate 2% (w/v), 30° C., pH 6.0, 24 hours, TLC
Protocol: (§5) It was tested whether saccharides can be used as substrates for the α-isomaltosylglucosaccharide-forming enzyme. For the purpose, a solution of maltose, maltotriose, maltotetraose, maltopentaose, maltohexaose, maltoheptaose, isomaltose, isomaltotriose, panose, isopanose, trehalose, kojibiose, nigerose, neotrehalose, cellobiose, gentibiose, maltitol, maltotriitol, lactose, sucrose, erlose, selaginose, maltosyl glucoside, or isomaltosyl glucoside was prepared.
(§6) To each of the above solutions was added two units/g substrate of a purified specimen of α-isomaltosylglucosaccharide-forming enzyme from either Bacillus globisporus C9 obtained by the method in Experiment 4-2, Bacillus globisporus C11 obtained by the method in Experiment 7-2, Bacillus globisporus N75 obtained by the method in Experiment 11-2, or Arthrobacter globiformis A19 obtained by the method in Experiment 15-2, and the resulting each solution was adjusted to give a substrate concentration of 2% (w/v) and incubated at 30° C. and pH 6.0, except for using pH 8.4 for the enzyme from Arthrobacter globiformis A19, for 24 hours. The enzyme solutions before and after the enzymatic reactions were respectively analyzed on TLC disclosed in Experiment 1 to confirm whether the enzymes acted on these substrates.

[10] = tested on: α-isomaltosylglucosaccharide-forming enzyme; experiment: Action on saccharides (substrates), Enzyme of Strain C9; format: biochemical, Bacillus globisporus C9; parameters: key: −: it showed no change; +: it showed a slight reduction of the color spot of the substrate and the formation of other reaction product; ++: it showed a high reduction of the color spot of the substrate and the formation of other reaction product; +++: it showed a substantial disappearance of the substrate spot and the formation of other reaction product; details: two units/g substrate, substrate 2% (w/v), 30° C., pH 6.0, 24 hours, TLC
Protocol: as §5, §6

[11] = tested on: α-isomaltosylglucosaccharide-forming enzyme; experiment: Transfer-acceptor specificity, Enzyme of Strain C9; format: biochemical, Bacillus globisporus C9; details: acceptor 1.6%, PINE-DEX #100 donor 4%, one unit/g donor, 30° C., pH 6.0, 24 hours
Summary of the method: (§7)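 Each candidate acceptor at 1.6% was combined with 4% partial starch hydrolysate donor and 1 unit/g donor (d.s.b.) of purified enzyme. Incubation ran 24 h at 30 °C, pH 6.0 for the C9, C11 and N75 enzymes and pH 8.4 for A19. Transfer products were detected by GLC for mono- and disaccharide acceptors and HPLC for trisaccharide acceptors.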

[12] = tested on: α-isomaltosylglucosaccharide-forming enzyme; experiment: Transfer-acceptor specificity, Enzyme of Strain A19; format: biochemical, Arthrobacter globiformis A19; details: acceptor 1.6%, PINE-DEX #100 donor 4%, one unit/g donor, 30° C., pH 8.4, 24 hours
Summary of the method: as §7

[13] = tested on: α-isomaltosylglucosaccharide-forming enzyme; experiment: Transfer-acceptor specificity, Enzyme of Strain N75; format: biochemical, Bacillus globisporus N75; details: acceptor 1.6%, PINE-DEX #100 donor 4%, one unit/g donor, 30° C., pH 6.0, 24 hours
Summary of the method: as §7

[14] = tested on: α-isomaltosylglucosaccharide-forming enzyme; experiment: Transfer-acceptor specificity, Enzyme of Strain C11; format: biochemical, Bacillus globisporus C11; details: acceptor 1.6%, PINE-DEX #100 donor 4%, one unit/g donor, 30° C., pH 6.0, 24 hours
[15] = tested on: α-isomaltosylglucosaccharide-forming enzyme; experiment: Action on saccharides (substrates), Enzyme of Strain N75; format: biochemical, Bacillus globisporus N75; parameters: key: −: it showed no change; +: it showed a slight reduction of the color spot of the substrate and the formation of other reaction product; ++: it showed a high reduction of the color spot of the substrate and the formation of other reaction product; +++: it showed a substantial disappearance of the substrate spot and the formation of other reaction product; details: two units/g substrate, substrate 2% (w/v), 30° C., pH 6.0, 24 hours, TLC
Protocol: as §5, §6

[16] = tested on: α-isomaltosylglucosaccharide-forming enzyme; experiment: Action on saccharides (substrates), Enzyme of Strain A19; format: biochemical, Arthrobacter globiformis A19; parameters: key: −: it showed no change; +: it showed a slight reduction of the color spot of the substrate and the formation of other reaction product; ++: it showed a high reduction of the color spot of the substrate and the formation of other reaction product; +++: it showed a substantial disappearance of the substrate spot and the formation of other reaction product; details: two units/g substrate, substrate 2% (w/v), 30° C., pH 8.4, 24 hours, TLC
Protocol: as §5, §6

Row | SMILES | Relative activity (%) [1] | Relative activity (%) [2] | Relative activity (%) [3] | Relative activity (%) [4] | Relative activity (%) [5] | Relative activity (%) [6] | Relative activity (%) [7] | Relative activity (%) [8] | other results
1 | [Hg+2] [Hg^2+] | 4% | 1% | 1% | 0.1% | 0% | 4% | 0.5% | 2% | influence on the enzyme activity, in words [1]: greatly inhibited; influence on the enzyme activity, in words [2]: greatly inhibited; influence on the enzyme activity, in words ([3]; 1 mM): greatly inhibited; influence on the enzyme activity, in words ([4]; 1 mM): greatly inhibited; influence on the enzyme activity, in words ([5]; 1 mM): greatly inhibited; influence on the enzyme activity, in words ([6]; 1 mM): greatly inhibited; influence on the enzyme activity, in words ([7]; 1 mM): greatly inhibited; influence on the enzyme activity, in words ([8]; 1 mM): greatly inhibited
2 | [Zn+2] [Zn^2+] | 91% | 82% | 88% | 78% | 56% | 92% | 75% | 83% | 
3 | [Fe+2] [Fe^2+] |  | 82% |  |  | 36% |  |  |  | Relative activity (%) ([4]; listed as Fe^3+): 75%; Relative activity (%) ([5]; listed as Fe^3+): 35%; Relative activity (%) ([7]; listed as Fe^3+): 90%; Relative activity (%) ([8]; listed as Fe^3+): 88%
4 | [Mn+2] [Mn^2+] | 142% | 120% | 106% |  |  | 111% |  |  | influence on the enzyme activity, in words [1]: activated; influence on the enzyme activity, in words [2]: activated
5 | [Al+3] [Al^3+] |  |  | 103% | 93% | 37% |  | 94% | 89% | 
6 | OC[C@H]1O[C@@](CO)(O[C@H]2O[C@H](CO)[C@@H](O)[C@H](O)[C@H]2O)[C@@H](O)[C@@H]1O [Sucrose] |  |  |  |  |  |  |  |  | Enzymatic action, Enzyme of Strain C11 [9]: −; Enzymatic action, Enzyme of Strain C9 [10]: −; Product of transferring reaction, Enzyme of Strain C9 [11]: ++ (a saccharide-transferred product was detected in an amount over ten percent through transfer reaction to acceptor); Product of transferring reaction, Enzyme of Stain A19 [12]: ++ (a saccharide-transferred product was detected in an amount over ten percent through transfer reaction to acceptor); Product of transferring reaction, Enzyme of Strain N75 [13]: ++ (a saccharide-transferred product was detected in an amount over ten percent through transfer reaction to acceptor); Product of transferring reaction, Enzyme of Strain C11 [14]: ++ (a saccharide-transferred product was detected in an amount over ten percent through transfer reaction to acceptor); Enzymatic action, Enzyme of Strain N75 [15]: −; Enzymatic action, Enzyme of Strain A19 [16]: −
7 | [Ni+2] [Ni^2+] |  |  | 102% | 87% | 46% |  | 91% | 89% | 
8 | OC[C@H]1O[C@@H](OC[C@H]2OC(O)[C@H](O)[C@@H](O)[C@@H]2O)[C@H](O)[C@@H](O)[C@@H]1O (some centres unmarked) [Gentibiose] |  |  |  |  |  |  |  |  | Enzymatic action, Enzyme of Strain C11 [9]: −; Enzymatic action, Enzyme of Strain C9 [10]: −; Product of transferring reaction, Enzyme of Strain C9 [11]: ++ (a saccharide-transferred product was detected in an amount over ten percent through transfer reaction to acceptor); Product of transferring reaction, Enzyme of Stain A19 [12]: + (a saccharide-transferred product was detected in an amount over one percent but less than ten percent through transfer reaction to acceptor); Product of transferring reaction, Enzyme of Strain N75 [13]: ++ (a saccharide-transferred product was detected in an amount over ten percent through transfer reaction to acceptor); Product of transferring reaction, Enzyme of Strain C11 [14]: ++ (a saccharide-transferred product was detected in an amount over ten percent through transfer reaction to acceptor); Enzymatic action, Enzyme of Strain N75 [15]: −; Enzymatic action, Enzyme of Strain A19 [16]: −
